Data on 12 compounds can be found in ChEMBL document CHEMBL1157758, “Structural and stereochemical requirements of the spiroketal group of hippuristanol for antiproliferative activity” (Bioorg Med Chem Lett, 2010).

The term IC50 denotes the concentration that gives 50% inhibition. A lower IC50 goes with higher potency.

For the assay, the system named is HeLa. The experiment in a line: Antiproliferative activity against human HeLa cells by [3H]thymidine incorporation. Format: functional, cell-based. (Incorporation of labelled thymidine or its analogues reports DNA synthesis.)
On to `CC1(C)CO[C@@]2(C1)O[C@H]1C[C@H]3[C@@H]4CC[C@H]5C[C@H](O)CC[C@]5(C)[C@H]4[C@@H](O)C[C@]3(C)[C@H]1[C@@]2(C)O`, for which the IC50 is more than 10000 nM.
Then `CC1(C)C[C@@]2(O[C@H]3C[C@H]4[C@@H]5CC[C@H]6C[C@H](O)CC[C@]6(C)[C@H]5[C@@H](O)C[C@]4(C)[C@H]3[C@]2(C)O)OC1(C)C`, with more than 10000 nM.
`CC1(C)CO[C@]2(C1)O[C@H]1C[C@H]3[C@@H]4CC[C@H]5C[C@H](O)CC[C@]5(C)[C@H]4[C@@H](O)C[C@]3(C)[C@H]1[C@@]2(C)O` displayed an IC50 of more than 10000 nM.
In the case of `CC1(C)C[C@]2(O[C@H]3C[C@H]4[C@@H]5CC[C@H]6C[C@H](O)CC[C@]6(C)[C@H]5[C@@H](O)C[C@]4(C)[C@H]3[C@@]2(C)O)OC1(C)C`, the IC50 came out at 2200 nM.
Take `CCC1(CC)CC[C@@]2(O[C@H]3C[C@H]4[C@@H]5CC[C@H]6C[C@H](O)CC[C@]6(C)[C@H]5[C@@H](O)C[C@]4(C)[C@H]3[C@@]2(C)O)O1`: half-maximal inhibition (IC50) was put at 3600 nM.
In turn, `C[C@]12CC[C@@H](O)C[C@@H]1CC[C@@H]1[C@@H]2[C@@H](O)C[C@@]2(C)[C@H]1C[C@@H]1O[C@@]3(CCCCO3)[C@](C)(O)[C@@H]12` had an IC50 of 1600 nM.
As to `C[C@]12CC[C@@H](O)C[C@@H]1CC[C@@H]1[C@@H]2[C@@H](O)C[C@@]2(C)[C@H]1C[C@@H]1O[C@]3(CCCCO3)[C@](C)(O)[C@@H]12`, the IC50 is more than 10000 nM.
For the compound `CC1(C)CCC[C@@]2(O[C@H]3C[C@H]4[C@@H]5CC[C@H]6C[C@H](O)CC[C@]6(C)[C@H]5[C@@H](O)C[C@]4(C)[C@H]3[C@@]2(C)O)O1`, the IC50 was found to be 600 nM.
In turn, `CCC1(CC)CC[C@]2(O[C@H]3C[C@H]4[C@@H]5CC[C@H]6C[C@H](O)CC[C@]6(C)[C@H]5[C@@H](O)C[C@]4(C)[C@H]3[C@@]2(C)O)O1` registered an IC50 of more than 10000 nM.
In turn, `CC1(C)CCC[C@]2(O[C@H]3C[C@H]4[C@@H]5CC[C@H]6C[C@H](O)CC[C@]6(C)[C@H]5[C@@H](O)C[C@]4(C)[C@H]3[C@@]2(C)O)O1` yielded an IC50 of 4900 nM.
The compound `CC1(C)C[C@@]2(O[C@H]3C[C@H]4[C@@H]5CC[C@H]6C[C@H](O)CC[C@]6(C)[C@H]5[C@@H](O)C[C@]4(C)[C@H]3[C@@]2(C)O)OC1(C)C` gave an IC50 of 200 nM.
As for `C[C@H]1C[C@@]2(O[C@H]3C[C@H]4[C@@H]5CC[C@H]6C[C@H](O)CC[C@]6(C)[C@H]5[C@@H](O)C[C@]4(C)[C@H]3[C@@]2(C)O)OC1(C)C` [HIPPURISTANOL], the IC50 is 70 nM.
